Results published in patent US9750701B2, “Pharmaceutical dosage form” (GRÜNENTHAL GMBH, priority 2008, dated 2017).
Like-named read-outs stand apart in the source and are kept apart here.

Assay: pharmacokinetic data of tapentadol formulation (blood plasma concentrations)
Type: in vivo, patients/test subjects
Conditions: human, formulation containing tapentadol; for AUC(0-inf): read-out: AUC0-∞ (total area under the curve); for half-life: read-out: t1/2 (half-life) (converted)
Text: For the purposes of the description, the pharmacokinetic parameters, which may be determined from the blood plasma concentrations of the pharmacologically active compound (A), are defined as follows: […]
The above parameters are in each case stated as mean values of the individual values for all investigated patients/test subjects.
In a particularly preferred embodiment the pharmacologically active compound (A) is tapentadol or a physiologically acceptable salt thereof and the pharmaceutical dosage form according to the invention is bioequivalent to a formulation that contains tapentadol or a physiologically acceptable salt thereof in a dosage of 200 mg and 250 mg, respectively, and is characterized by the following pharmacokinetic data: […]

`CC[C@@H](c1cccc(O)c1)[C@@H](C)CN(C)C` [tapentadol] showed a Cmax (dosage 200 mg) of 62.5 ng/mL, a Tmax (dosage 200 mg) of 5 h and an AUC(0-inf) (dosage 200 mg) of 825 ng·h/mL. It also gave a half-life (dosage 200 mg) of 5.2 h, a Cmax (dosage 250 mg) of 89.3 ng/mL and a Tmax (dosage 250 mg) of 5 h. It also gave an AUC(0-inf) (dosage 250 mg) of 1100 ng·h/mL and a half-life (dosage 250 mg) of 5.4 h.
